Laboratory results published in the supplement of paper PMC10307832.

Columns and labels:
Test in all cases: relative viability (nuclei count vs DMSO), 5 days (fraction); higher = more cells survive
A-427 = test system: A-427
In short: (§1)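 Cells from lung cancer lines were seeded into 1536-well plates and, one day later, dosed by pin tool. Treatments were either a single drug or a fixed dose of an anchor drug with five library-drug doses (not always all listed) in √10 steps. After 5 days, nuclei were stained in a one-step fixation (final 0.05% Triton X-100, 1% formaldehyde, 1 ug/ml Hoechst) and counted on 4× images, and relative viability is the treated-to-vehicle nuclei ratio, as the median of duplicate plates.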

ABC-1 = test system: ABC-1
In short: as §1

EPLC-272H = test system: EPLC-272H
In short: as §1

HCC-15 = test system: HCC-15
In short: as §1

LC-2-ad = test system: LC-2-ad
In short: as §1

LK-2 = test system: LK-2
In short: as §1

NCI-H1734 = test system: NCI-H1734
In short: as §1

NCI-H1793 = test system: NCI-H1793
In short: as §1

NCI-H1915 = test system: NCI-H1915
In short: as §1

NCI-H1944 = test system: NCI-H1944
In short: as §1

NCI-H2009 = test system: NCI-H2009
In short: as §1

NCI-H2023 = test system: NCI-H2023
In short: as §1

NCI-H2342 = test system: NCI-H2342
In short: as §1

NCI-H2347 = test system: NCI-H2347
In short: as §1

NCI-H322M = test system: NCI-H322M
In short: as §1

NCI-H358 = test system: NCI-H358
In short: as §1

NCI-H441 = test system: NCI-H441
In short: as §1

NCI-H522 = test system: NCI-H522
In short: as §1

NCI-H647 = test system: NCI-H647
In short: as §1

NCI-H838 = test system: NCI-H838
In short: as §1

RERF-LC-KJ = test system: RERF-LC-KJ
In short: as §1

SW 1573 = test system: SW 1573
In short: as §1

UMC-11 = test system: UMC-11
In short: as §1

With `Cc1csc(=NC2CCCCC2)n1/N=C/c1ccc(O)c(O)c1O` [MIM1] + Cc1cc(Nc2cc(N3CCN(C)CC3)nc(Sc3ccc(NC(=O)C4CC4)cc3)n2)n[nH]1 [Tozasertib] (partner 0.1 µM) the relative viability (A-427; first compound 0.2 µM) was 0.266, the relative viability (A-427; first compound 2 µM) was 0.202 and the relative viability (A-427; first compound 6.325 µM) was 0.249. The relative viability (A-427; first compound 20 µM) was 0.164, the relative viability (ABC-1; first compound 0.2 µM) was 0.228 and the relative viability (ABC-1; first compound 0.6325 µM) was 0.182. For the same compound, the relative viability (ABC-1; first compound 2 µM) was 0.21, the relative viability (ABC-1; first compound 6.325 µM) was 0.206 and the relative viability (ABC-1; first compound 20 µM) was 0.194. For the same compound, the relative viability (EPLC-272H; first compound 0.2 µM) was 0.425, the relative viability (EPLC-272H; first compound 0.6325 µM) was 0.226 and the relative viability (EPLC-272H; first compound 2 µM) was 0.219. For the same compound, the relative viability (EPLC-272H; first compound 6.325 µM) was 0.372, the relative viability (EPLC-272H; first compound 20 µM) was 0.124 and the relative viability (HCC-15; first compound 0.2 µM) was 0.354. For the same compound, the relative viability (HCC-15; first compound 0.6325 µM) was 0.35, the relative viability (HCC-15; first compound 2 µM) was 0.228 and the relative viability (HCC-15; first compound 6.325 µM) was 0.231. The relative viability (HCC-15; first compound 20 µM) was 0.137, the relative viability (LC-2-ad; first compound 0.2 µM) was 0.546 and the relative viability (LC-2-ad; first compound 0.6325 µM) was 0.471. It also gave a relative viability (LC-2-ad; first compound 2 µM) of 0.367, a relative viability (LC-2-ad; first compound 6.325 µM) of 0.364 and a relative viability (LC-2-ad; first compound 20 µM) of 0.223. The relative viability (LK-2; first compound 0.2 µM) was 0.186, the relative viability (LK-2; first compound 2 µM) was 0.161 and the relative viability (LK-2; first compound 6.325 µM) was 0.166. The relative viability (LK-2; first compound 20 µM) was 0.142, the relative viability (NCI-H1734; first compound 0.2 µM) was 0.226 and the relative viability (NCI-H1734; first compound 0.6325 µM) was 0.261. It also gave a relative viability (NCI-H1734; first compound 2 µM) of 0.256, a relative viability (NCI-H1734; first compound 6.325 µM) of 0.169 and a relative viability (NCI-H1734; first compound 20 µM) of 0.124. For the same compound, the relative viability (NCI-H1793; first compound 0.2 µM) was 0.405, the relative viability (NCI-H1793; first compound 2 µM) was 0.435 and the relative viability (NCI-H1793; first compound 6.325 µM) was 0.298. The relative viability (NCI-H1793; first compound 20 µM) was 0.34, the relative viability (NCI-H1915; first compound 0.2 µM) was 0.499 and the relative viability (NCI-H1915; first compound 0.6325 µM) was 0.403. It also gave a relative viability (NCI-H1915; first compound 2 µM) of 0.337, a relative viability (NCI-H1915; first compound 6.325 µM) of 0.305 and a relative viability (NCI-H1915; first compound 20 µM) of 0.182. The relative viability (NCI-H1944; first compound 0.2 µM) was 0.226, the relative viability (NCI-H1944; first compound 0.6325 µM) was 0.288 and the relative viability (NCI-H1944; first compound 2 µM) was 0.235. It also gave a relative viability (NCI-H1944; first compound 6.325 µM) of 0.231, a relative viability (NCI-H1944; first compound 20 µM) of 0.143 and a relative viability (NCI-H2009; first compound 0.2 µM) of 0.754. The relative viability (NCI-H2009; first compound 0.6325 µM) was 0.701, the relative viability (NCI-H2009; first compound 2 µM) was 0.859 and the relative viability (NCI-H2009; first compound 6.325 µM) was 0.622. It also gave a relative viability (NCI-H2009; first compound 20 µM) of 0.725, a relative viability (NCI-H2023; first compound 0.2 µM) of 0.32 and a relative viability (NCI-H2023; first compound 0.6325 µM) of 0.345. It also gave a relative viability (NCI-H2023; first compound 2 µM) of 0.3, a relative viability (NCI-H2023; first compound 6.325 µM) of 0.237 and a relative viability (NCI-H2023; first compound 20 µM) of 0.109. The relative viability (NCI-H2342; first compound 0.2 µM) was 0.429, the relative viability (NCI-H2342; first compound 0.6325 µM) was 0.58 and the relative viability (NCI-H2342; first compound 2 µM) was 0.53. It also gave a relative viability (NCI-H2342; first compound 6.325 µM) of 0.508, a relative viability (NCI-H2342; first compound 20 µM) of 0.575 and a relative viability (NCI-H2347; first compound 0.2 µM) of 0.478. It also gave a relative viability (NCI-H2347; first compound 0.6325 µM) of 0.51, a relative viability (NCI-H2347; first compound 2 µM) of 0.497 and a relative viability (NCI-H2347; first compound 6.325 µM) of 0.473. The relative viability (NCI-H2347; first compound 20 µM) was 0.369, the relative viability (NCI-H322M; first compound 0.2 µM) was 0.497 and the relative viability (NCI-H322M; first compound 0.6325 µM) was 0.456. For the same compound, the relative viability (NCI-H322M; first compound 2 µM) was 0.513, the relative viability (NCI-H322M; first compound 6.325 µM) was 0.447 and the relative viability (NCI-H322M; first compound 20 µM) was 0.26. The relative viability (NCI-H358; first compound 0.2 µM) was 0.106, the relative viability (NCI-H358; first compound 0.6325 µM) was 0.0936 and the relative viability (NCI-H358; first compound 2 µM) was 0.129. For the same compound, the relative viability (NCI-H358; first compound 6.325 µM) was 0.0878, the relative viability (NCI-H358; first compound 20 µM) was 0.0838 and the relative viability (NCI-H441; first compound 0.2 µM) was 0.675. For the same compound, the relative viability (NCI-H441; first compound 2 µM) was 0.599, the relative viability (NCI-H441; first compound 6.325 µM) was 0.376 and the relative viability (NCI-H441; first compound 20 µM) was 0.312. For the same compound, the relative viability (NCI-H522; first compound 0.2 µM) was 0.622, the relative viability (NCI-H522; first compound 0.6325 µM) was 0.572 and the relative viability (NCI-H522; first compound 2 µM) was 0.484. The relative viability (NCI-H522; first compound 6.325 µM) was 0.608, the relative viability (NCI-H522; first compound 20 µM) was 0.452 and the relative viability (NCI-H647; first compound 0.2 µM) was 0.262. The relative viability (NCI-H647; first compound 0.6325 µM) was 0.27, the relative viability (NCI-H647; first compound 6.325 µM) was 0.247 and the relative viability (NCI-H647; first compound 20 µM) was 0.11. For the same compound, the relative viability (NCI-H838; first compound 0.2 µM) was 0.292, the relative viability (NCI-H838; first compound 0.6325 µM) was 0.307 and the relative viability (NCI-H838; first compound 2 µM) was 0.249. It also gave a relative viability (NCI-H838; first compound 6.325 µM) of 0.236, a relative viability (NCI-H838; first compound 20 µM) of 0.236 and a relative viability (RERF-LC-KJ; first compound 0.2 µM) of 0.507. The relative viability (RERF-LC-KJ; first compound 0.6325 µM) was 0.503, the relative viability (RERF-LC-KJ; first compound 2 µM) was 0.317 and the relative viability (RERF-LC-KJ; first compound 6.325 µM) was 0.231. It also gave a relative viability (RERF-LC-KJ; first compound 20 µM) of 0.224, a relative viability (SW 1573; first compound 0.2 µM) of 0.21 and a relative viability (SW 1573; first compound 0.6325 µM) of 0.197. The relative viability (SW 1573; first compound 2 µM) was 0.257, the relative viability (SW 1573; first compound 6.325 µM) was 0.127 and the relative viability (SW 1573; first compound 20 µM) was 0.128. For the same compound, the relative viability (UMC-11; first compound 0.2 µM) was 0.197, the relative viability (UMC-11; first compound 2 µM) was 0.196 and the relative viability (UMC-11; first compound 6.325 µM) was 0.207. It also gave a relative viability (UMC-11; first compound 20 µM) of 0.187.
